Drawing on patent US8415351B2 (priority 2007, dated 2013), this text covers IC50 and EC50 for 16 compounds.

Assay [1] concerns the target T1, HCV polymerase 1A (Δ21 NS5B, H77) (Hepatitis C virus genotype 1a, UniProt P27958).
T1 construct: 20 to 50 nM Δ21 NS5B
Briefly: biochemical. The following applies: IC50 1a. Here is the method: HCV Polymerase Inhibition Assay
The reaction was initiated by the addition of 20 μM CTP, 20 μM ATP, 1 μM ^3H-UTP (10 mCi/umol), 5 nM template RNA and 0.1 U/μl RNase inhibitor (RNasin, Promega), and allowed to proceed for 2 to 4 h at room temperature. Reaction volume was 50 μl. The reaction was terminated by the addition of 1 volume of 4 mM spermine in 10 mM Tris-Cl pH 8.0, 1 mM EDTA. After incubation for at least 15 min at room temperature, the precipitated RNA was captured by filtering through a GF/B filter (Millipore) in a 96 well format. The filter plate was washed three times with 200 μl each of 2 mM spermine, 10 mM Tris-Cl pH 8.0, 1 mM EDTA, and 2 times with ethanol. After air-drying, 30 μl of Microscint 20 scintillation cocktail (Packard) was added to each well, and the retained cpm were determined by scintillation counting. […] Retained cpm were plotted vs. inhibitor concentration and fit to equation 1 using non-linear regression (ref. 1) to obtain the IC50 values: Retained cpm=A[sqrt{(IC50+It−Et)^2+4*IC50*Et}−(IC50+It−Et)]
Ref. Morrison, J. F. and S. R. Stone. […] Approaches to the study and analysis of the inhibition of enzymes by slow- and tight-binding inhibitors. Comments Mol. Cell. Biophys.
The sequence of the template RNA used was: 5′-[…]

Assay [2] concerns genotype 1a-H77 subgenomic replicon cell line. Briefly: microbe, parasite or virus in culture. The format is cell-based, HCV. The following applies: Hepatitis C virus, read-out: EC50 1a.
Assay [3] relates to genotype 1b-Con1 subgenomic replicon cell line. Briefly: microbe, parasite or virus in culture. The format is cell-based, HCV. The following applies: Hepatitis C virus, read-out: EC50 1b.

T1 sequence (P27958 2421-2990, stated change not applied): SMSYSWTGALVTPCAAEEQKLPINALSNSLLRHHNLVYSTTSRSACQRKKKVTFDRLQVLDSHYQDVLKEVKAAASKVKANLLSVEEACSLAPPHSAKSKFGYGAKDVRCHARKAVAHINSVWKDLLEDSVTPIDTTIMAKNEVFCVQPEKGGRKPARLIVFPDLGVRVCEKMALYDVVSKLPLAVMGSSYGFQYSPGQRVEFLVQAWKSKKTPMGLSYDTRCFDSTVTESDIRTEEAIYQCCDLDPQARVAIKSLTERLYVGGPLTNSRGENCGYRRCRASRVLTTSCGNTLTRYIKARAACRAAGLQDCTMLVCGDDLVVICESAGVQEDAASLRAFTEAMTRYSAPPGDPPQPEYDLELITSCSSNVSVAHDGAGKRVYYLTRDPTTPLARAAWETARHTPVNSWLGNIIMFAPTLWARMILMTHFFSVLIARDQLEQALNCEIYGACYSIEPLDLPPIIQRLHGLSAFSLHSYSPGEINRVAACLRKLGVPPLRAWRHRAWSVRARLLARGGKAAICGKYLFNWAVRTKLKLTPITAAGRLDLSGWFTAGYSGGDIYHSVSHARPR

The term IC50 denotes the point on the concentration scale where inhibition reaches its midpoint. Higher therefore signals weaker potency. Usually EC50 stands for the concentration at which the effect is half-maximal. Compound `CC(C)(C)c1cc(N2CCC(=O)NC2=O)cc(C(=O)Nc2ccc(OCC(N)=O)cc2)c1O` [IA-L3-1.18, N-(4-(2-amino-2-oxoethoxy)phenyl)-3-tert-butyl-5-(2,4-dioxotetrahydropyrimidin-1(2H)-yl)-2-hydroxybenzamide] came in with a half-maximal inhibitory concentration (IC50) in assay [1] of over 1000 nM. In addition, the EC50 in assay [2] is over 1000 nM; in assay [3], 100 to 1000 nM.
In assay [1], `CC(C)(C)c1cc(N2CCC(=O)NC2=O)cc(C(=O)Nc2ccc(OCC#N)cc2)c1O` [IA-L3-1.17, 3-tert-butyl-N-(4-(cyanomethoxy)phenyl)-5-(2,4-dioxotetrahydropyrimidin-1(2H)-yl)-2-hydroxybenzamide] came in with a half-inhibitory concentration (IC50) of over 1000 nM. Moreover, the half-maximal effective concentration (EC50) in assay [2] and in assay [3] was over 1000 nM throughout.
Turning to `COCCN(C)C(=O)c1cc(NS(C)(=O)=O)ccc1/C=C/c1cc(-n2ccc(=O)[nH]c2=O)cc(C(C)(C)C)c1OC` [IB-L1-1.24, 2-{(E)-2-[3-tert-butyl-5-(2,4-dioxo-3,4-dihydro-2H-pyrimidin-1-yl)-2-methoxy-phenyl]-vinyl}-5-methanesulfonylamino-N-(2-methoxy-ethyl)-N-methyl-benzamide], the values for the EC50 in assay [2] and in assay [3] were 10 to 100 nM and under 10 nM, respectively.
The like results for `COCC(C)(C)c1cc(-n2ccc(=O)[nH]c2=O)cc(-c2ccc3cc(NS(C)(=O)=O)ccc3c2)c1OC` [IB-L0-2.66, N-(6-(5-(2,4-dioxo-3,4-dihydropyrimidin-1(2H)-yl)-2-methoxy-3-(1-methoxy-2-methylpropan-2-yl)phenyl)naphthalen-2-yl)methanesulfonamide] were, in that order, 100 to 1000 nM and 10 to 100 nM.
The matching figures for `COc1c(-c2nc3cc(NS(C)(=O)=O)ccc3s2)cc(N2CCC(=O)NC2=O)cc1C(C)(C)C` [IA-L0-2.4, N-(2-(3-tert-butyl-5-(2,4-dioxotetrahydropyrimidin-1(2H)-yl)-2-methoxyphenyl)benzo[d]thiazol-5-yl)methanesulfonamide]: over 1000 nM and 100 to 1000 nM.
The like results for `COc1c(-c2nc3ccc(NS(C)(=O)=O)cc3s2)cc(N2CCC(=O)NC2=O)cc1C(C)(C)C` [IA-L0-2.2, N-(2-(3-tert-butyl-5-(2,4-dioxotetrahydropyrimidin-1(2H)-yl)-2-methoxyphenyl)benzo[d]thiazol-6-yl)methanesulfonamide] were, in that order, 100 to 1000 nM and 10 to 100 nM.
On to `COc1c(CCc2ccc(NS(C)(=O)=O)cc2)cc(-n2ccc(=O)[nH]c2=O)cc1C(C)(C)C` [IB-L5-2-1.2, N-(4-(3-tert-butyl-5-(2,4-dioxo-3,4-dihydropyrimidin-1(2H)-yl)-2-methoxyphenethyl)phenyl)methanesulfonamide], for which the EC50 fell in the range of 100 to 1000 nM in assay [2] and 10 to 100 nM in assay [3].
Turning to `COc1c(/C=C(\Cl)c2ccc(NS(C)(=O)=O)cc2)cc(N2CCC(=O)NC2=O)cc1C(C)(C)C` [IA-L1-1.3, (Z)—N-(4-(2-(3-tert-butyl-5-(2,4-dioxotetrahydropyrimidin-1(2H)-yl)-2-methoxyphenyl)-1-chlorovinyl)phenyl)methanesulfonamide], the EC50 was 10 to 100 nM in assay [2] and under 10 nM in assay [3].
The like results for `COc1c(/C=C/c2ccc(NS(C)(=O)=O)cc2)cc(-n2ccc(=O)[nH]c2=O)cc1-c1ccsc1` [IB-L1-1.47, (E)-N-(4-(5-(2,4-dioxo-3,4-dihydropyrimidin-1(2H)-yl)-2-methoxy-3-(thiophen-3-yl)styryl)phenyl)methanesulfonamide] were, in that order, 100 to 1000 nM and 10 to 100 nM.
The matching figures for `COc1c(-c2ccc3c(c2)CCN3S(C)(=O)=O)cc(-n2ccc(=O)[nH]c2=O)cc1C(C)(C)C` [IB-L0-2.32, 1-(3-tert-butyl-4-methoxy-5-(1-(methylsulfonyl)indolin-5-yl)phenyl)pyrimidine-2,4(1H,3H)-dione]: 100 to 1000 nM and 10 to 100 nM.
The like results for `COc1c(-c2ccccc2)cc(-n2ccc(=O)[nH]c2=O)cc1-c1ccc2cc(NS(C)(=O)=O)ccc2c1` [IB-L0-2.71, N-(6-(5-(2,4-dioxo-3,4-dihydropyrimidin-1(2H)-yl)-2-methoxy-biphenyl-3-yl)naphthalen-2-yl)methanesulfonamide] were, in that order, 100 to 1000 nM and 10 to 100 nM.
For the compound `COC(=O)c1cc(NS(C)(=O)=O)ccc1/C=C/c1cc(-n2ccc(=O)[nH]c2=O)cc(C(C)(C)C)c1OC` [IB-L1-1.7, (K)-methyl 2-(3-tert-butyl-5-(2,4-dioxo-3,4-dihydropyrimidin-1(2H)-yl)-2-methoxystyryl)-5-(methylsulfonamido)benzoate], the EC50 in assay [2] and in assay [3] was under 10 nM in each case.
Take `COc1c(/C=C/c2ccc(NS(C)(=O)=O)cc2C(=O)N2CCCC2)cc(-n2ccc(=O)[nH]c2=O)cc1C(C)(C)C` [IB-L1-1.27, N-[4-{(E)-2-[3-tert-butyl-5-(2,4-dioxo-3,4-dihydro-2H-pyrimidin-1-yl)-2-methoxy-phenyl]-vinyl}-3-(pyrrolidine-1-carbonyl)-phenyl]-methanesulfonamide]: the EC50 in assay [2] is 10 to 100 nM; in assay [3] it was under 10 nM.
The matching figures for `COc1c(/C=C/c2ccc(NS(C)(=O)=O)cc2-c2ncco2)cc(-n2ccc(=O)[nH]c2=O)cc1C(C)(C)C` [IB-L1-1.26, (E)-N-(4-(3-tert-butyl-5-(2,4-dioxo-3,4-dihydropyrimidin-1(2H)-yl)-2-methoxystyryl)-3-(oxazol-2-yl)phenyl)methanesulfonamide]: 10 to 100 nM and under 10 nM.
For the compound `CO/C(=C\c1cc(N2CCC(=O)NC2=O)cc(C(C)(C)C)c1OC)c1ccc(NS(C)(=O)=O)cc1` [IA-L1-1.17, (Z)—N-(4-(2-(3-tert-butyl-5-(2,4-dioxotetrahydropyrimidin-1(2H)-yl)-2-methoxyphenyl)-1-methoxyvinyl)phenyl)methanesulfonamide], the EC50 in assay [2] and in assay [3] was 10 to 100 nM in each case.
For the compound `COC(=O)c1cc(-n2ccc(=O)[nH]c2=O)cc(-c2ccc3cc(NS(C)(=O)=O)ccc3c2)c1OC` [IB-L0-2.72, methyl 5-(2,4-dioxo-3,4-dihydropyrimidin-1(2H)-yl)-2-methoxy-3-(6-(methylsulfonamido)naphthalen-2-yl)benzoate], the concentration giving a half-maximal response (EC50) in assay [2] was over 1000 nM; in assay [3], 100 to 1000 nM.
